This note sets out measurements from patent US20260184693A1, “INHIBITORS OF SOLUTE CARRIER FAMILY 6A MEMBER 19 (SLC6A19) AND METHODS OF USE THEREOF” (Maze Therapeutics, Inc., priority 2022, published 2026).

For the assay, the target named is T1, human SLC6A19 (Homo sapiens, UniProt Q695T7).
T1 construct: expressed in transfected cells
T1 sequence (Q695T7 1-634): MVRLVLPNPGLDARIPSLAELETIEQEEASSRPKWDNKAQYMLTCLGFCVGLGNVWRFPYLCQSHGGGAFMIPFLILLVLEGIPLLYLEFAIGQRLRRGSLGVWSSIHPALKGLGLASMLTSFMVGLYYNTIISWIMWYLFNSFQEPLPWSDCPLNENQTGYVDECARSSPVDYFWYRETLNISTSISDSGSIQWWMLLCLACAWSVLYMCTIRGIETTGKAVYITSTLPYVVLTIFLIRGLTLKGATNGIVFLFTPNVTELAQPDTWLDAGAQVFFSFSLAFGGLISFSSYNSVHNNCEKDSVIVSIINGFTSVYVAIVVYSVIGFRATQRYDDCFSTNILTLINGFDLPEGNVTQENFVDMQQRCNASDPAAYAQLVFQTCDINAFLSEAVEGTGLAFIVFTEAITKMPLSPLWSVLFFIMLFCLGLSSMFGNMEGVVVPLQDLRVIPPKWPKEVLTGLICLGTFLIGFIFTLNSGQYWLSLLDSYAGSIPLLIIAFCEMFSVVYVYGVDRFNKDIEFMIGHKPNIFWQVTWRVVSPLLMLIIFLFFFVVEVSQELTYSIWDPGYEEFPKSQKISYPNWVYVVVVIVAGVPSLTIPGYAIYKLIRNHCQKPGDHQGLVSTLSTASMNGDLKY
T1 sequence (Q9HBJ8 15-222 partner): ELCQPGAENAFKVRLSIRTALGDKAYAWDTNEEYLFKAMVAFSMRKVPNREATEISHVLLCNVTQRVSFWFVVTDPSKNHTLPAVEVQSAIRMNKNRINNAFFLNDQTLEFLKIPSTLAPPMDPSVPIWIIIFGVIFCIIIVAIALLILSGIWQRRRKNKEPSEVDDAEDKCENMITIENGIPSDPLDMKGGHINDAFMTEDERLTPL
Nature of the assay: Example B-1: L-[3H]leucine uptake, liquid scintillation, in CHO cells with doxycycline-inducible expression of human SLC6A19 and TMEM27. Type of assay: cell-based. Conditions: read-out: SLC6A19_Radioligand Uptake Assay IC50. As to the method: CHO cells with doxycycline-inducible expression of human SLC6A19 and TMEM27 were maintained in T150 cell culture treated flasks using cell culture media, which consisted of 1×DMEM/F12 (Gibco, 11330057), 10% Tet System-Approved FBS (Gibco, A4736401), 100 U/mL Penicillin-Streptomycin (Gibco, 15140122), 1×GlutaMAX™ Supplement (Gibco, 35050061), 1 mM Sodium Pyruvate (Gibco, 11360070), 1.1 mg/mL Sodium Bicarbonate (Gibco, 25080094), 5 μg/mL Blasticidin (InvivoGen, ant-bl-1), 150 μg/mL Hygromycin B Gold (InvivoGen, ant-hg-5), and 500 μg/mL G418 (Sigma-Aldrich, G8168-100 mL). In preparation for the assay, this media was aspirated and 5 mL of TryμLE™ Express Enzyme (Gibco, 12605010) was added to each flask to initiate cell dissociation. The flasks were then incubated (humidified, 37° C. with 5% CO2) for 2 minutes. After incubation, 10 mL of pre-warmed cell culture media was added to each flask. The cell suspension was collected and centrifuged for 5 minutes at 200xg.
The supernatant was aspirated and the pellet was resuspended in 5 mL pre-warmed cell culture media. The resuspended cells were counted using the Countess Cell Counting Chamber (Invitrogen) and the cell concentration of the suspension was readjusted to 1 million live cells/mL using pre-warmed cell culture media. 25 uL/well (25,000 cells/well) of readjusted cell suspension was dispensed into Poly-D-Lysine 384-well white/clear plates (Corning, 354660) using a MultiDrop Combi (Thermo Electron Corp). To induce expression of Human SLC6A19 and TMEM27, 25 uL/well of cell culture media containing 2 μg/mL doxycycline was added to the first 23 columns of each plate resulting in a final concentration of […] doxycycline. 25 μL/well of cell culture media was added to the last column of each plate, to act as negative control wells for Human SLC6A19 and TMEM27 expression. Assay plates were then incubated (humidified, 37° C. with 5% CO2) for 18 hours. After incubation, the media was aspirated and the wells were washed 4 times with pre-warmed HBSS (Sigma-Aldrich, H8264-1L) using an Apricot S-Pipette S2 (Apricot Designs), such that 5 uL/well HBSS was remaining at the end of each wash. […] At this step, the final in-well DMSO concentration in the assay plate is 0.5%. All compounds were plated in a duplicate 8-point dilution series that consisted of 3-fold dilutions. […] Afterwards, 15 uL/well of 3.2 mM hot:cold leucine solution (1:15000 ratio of L-[3,4,5-3H(N)] Leucine (Perkin Elmer, NET460001MC) to L-Leucine (Sigma-Aldrich, L8912-25G) diluted with HBSS (Sigma-Aldrich, H8264-1L)) was added using the Viaflo 384 (Integra), for a final concentration of 1.6 mM hot:cold leucine solution. The plates were then incubated (humidified, 37° C. with 5% CO2) for 20 minutes to conduct the uptake reaction. Immediately after the incubation, the plates were washed 4 times with HBSS (Sigma-Aldrich, H8264-1L) using the ELx405 Microplate Washer (Biotek) to terminate the uptake reaction. After the washes, 50 uL/well Ultima Gold Scintillation Cocktail (Perkin Elmer, 6013326) was added to each well using the Viaflo 384 (Integra). The plates were then incubated (humidified, 37° C. with 5% CO2) on a plate shaker at 200 rpm for 2 hours. After incubation, the plates were removed from the shaker and kept at room temperature for 15 minutes.
Liquid scintillation analysis was performed using the MicroBeta2 Microplate Counter (Perkin Elmer). Activity (%) was derived by normalizing the average of positive control compound treated wells to 0% and the average of DMSO (negative control) wells to 100%. Collaborative Drug Discovery software was used for graphing data.
Broadly, the IC50 is the concentration needed to halve the response being measured. On to `CC(=O)N1C[C@H](N(C)C(=O)NCc2cc3cc(Cl)ccc3[nH]2)CC[C@@H]1C` (single isomer, unassigned) [Compound 192, 1-((3R,6S or 3S,6R)-1-acetyl-6-methylpiperidin-3-yl)-3-((5-chloro-1H-indol-2-yl)methyl)-1-methylurea], for which the IC50 came out at 558 nM.

`CN(C(=O)NCc1cc2cc(Cl)ccc2[nH]1)[C@@H]1CCCN(C(=O)c2cc(F)ccn2)C1` [Compound 111, (R)-3-((5-chloro-1H-indol-2-yl)methyl)-1-(1-(4-fluoropicolinoyl)piperidin-3-yl)-1-methylurea]: the IC50 was determined as 1320 nM.

As for `CN(C(=O)NCc1cc2cc(Cl)ccc2[nH]1)[C@@H]1CCCN(C(=O)C2CCOC2)C1` (stereo partly drawn) [Compound 112, 3-((5-chloro-1H-indol-2-yl)methyl)-1-methyl-1-((3R)-1-(tetrahydrofuran-3-carbonyl)piperidin-3-yl)urea], the IC50 was determined as 367 nM.

As for `CN(C(=O)NCc1cc2cc(Cl)ccc2[nH]1)[C@@H]1CCCN(C(=O)c2nn(C)cc2F)C1` [Compound 113, (R)-3-((5-chloro-1H-indol-2-yl)methyl)-1-(1-(4-fluoro-1-methyl-1H-pyrazole-3-carbonyl)piperidin-3-yl)-1-methylurea], the IC50 was found to be 494 nM.

For `CN(C(=O)NCc1cc2cc(Cl)ccc2[nH]1)[C@@H]1CCCN(C(=O)c2ccc(F)cn2)C1` [Compound 114, (R)-3-((5-chloro-1H-indol-2-yl)methyl)-1-(1-(5-fluoropicolinoyl)piperidin-3-yl)-1-methylurea], the IC50 is 847 nM.

As to `CN(C(=O)NCc1cc2cc(Cl)ccc2[nH]1)[C@@H]1CCCN(C(=O)c2cc(F)n(C)n2)C1` [Compound 115, (R)-3-((5-chloro-1H-indol-2-yl)methyl)-1-(1-(5-fluoro-1-methyl-1H-pyrazole-3-carbonyl)piperidin-3-yl)-1-methylurea], the IC50 was determined as 688 nM.

`CN(C(=O)NCc1cc2cc(Cl)ccc2[nH]1)[C@@H]1CCCN(C(=O)C2CCO2)C1` (stereo partly drawn) [Compound 116, 3-((5-chloro-1H-indol-2-yl)methyl)-1-methyl-1-((3R)-1-(oxetane-2-carbonyl)piperidin-3-yl)urea]: the IC50 worked out at 515 nM.

Regarding `CC1CC(C(=O)N2CCC[C@@H](N(C)C(=O)NCc3cc4cc(Cl)ccc4[nH]3)C2)C1` (stereo partly drawn) [Compound 117, (R)-3-((5-chloro-1H-indol-2-yl)methyl)-1-methyl-1-(1-(3-methylcyclobutane-1-carbonyl)piperidin-3-yl)urea], the IC50 is 608 nM.

As for `CN(C(=O)NCc1cc2cc(Cl)ccc2[nH]1)[C@@H]1CCCN(C(=O)C2(C)CCC2)C1` [Compound 118, (R)-3-((5-chloro-1H-indol-2-yl)methyl)-1-methyl-1-(1-(1-methylcyclobutane-1-carbonyl)piperidin-3-yl)urea], the IC50 was determined as 1620 nM.

In the case of `CN(C(=O)NCc1cc2cc(Cl)ccc2[nH]1)[C@@H]1CCCN(C(=O)Cn2cc(CCN)nn2)C1` [Compound 134, (R)-1-(1-(2-(4-(2-aminoethyl)-1H-1,2,3-triazol-1-yl)acetyl)piperidin-3-yl)-3-((5-chloro-1H-indol-2-yl)methyl)-1-methylurea], the IC50 stood at 3770 nM.

Turning to `CN(C(=O)NCc1cc2cc(Cl)ccc2[nH]1)[C@@H]1CCCN(C(=O)Cc2cnco2)C1` [Compound 205, (R)-3-((5-chloro-1H-indol-2-yl)methyl)-1-methyl-1-(1-(2-(oxazol-5-yl)acetyl)piperidin-3-yl)urea], the IC50 came out at 444 nM.

For `CC(=O)N1CCC[C@@H](N(C)C(=O)NCCc2ccc(Cl)c(-c3cc4ccccc4[nH]3)c2)C1` [Compound 206, (R)-1-(1-acetylpiperidin-3-yl)-3-(4-chloro-3-(1H-indol-2-yl)phenethyl)-1-methylurea], the IC50 came out at 441 nM.

Regarding `CC(=O)N1CCC[C@@H](N(C)C(=O)NCCc2cc(-c3cc4ccccc4[nH]3)c(Cl)cc2Cl)C1` [Compound 207, (R)-1-(1-acetylpiperidin-3-yl)-3-(2,4-dichloro-5-(1H-indol-2-yl)phenethyl)-1-methylurea], the concentration for half-maximal inhibition (IC50) is 715 nM.

Consider `CN(C)C(=O)N1CCC[C@@H](N(C)C(=O)NCc2cc3cc(Cl)ccc3[nH]2)C1` [Compound 208, (R)-3-(3-((5-chloro-1H-indol-2-yl)methyl)-1-methylureido)-N,N-dimethylpiperidine-1-carboxamide], for which the IC50 stood at 418 nM.

`CCNC(=O)N1CCC[C@@H](N(C)C(=O)NCc2cc3cc(Cl)ccc3[nH]2)C1` [Compound 209, (R)-3-(3-((5-chloro-1H-indol-2-yl)methyl)-1-methylureido)-N-ethylpiperidine-1-carboxamide]: the IC50 came out at 126 nM.

As for `CN(C(=O)NCc1cc2cc(Cl)ccc2[nH]1)[C@@H]1CCCN(C(=O)NCC(F)(F)F)C1` [Compound 210, (R)-3-(3-((5-chloro-1H-indol-2-yl)methyl)-1-methylureido)-N-(2,2,2-trifluoroethyl)piperidine-1-carboxamide], the IC50 is 892 nM.

Consider `CN(C(=O)NCc1cc2cc(Cl)ccc2[nH]1)[C@@H]1CCCN(C(=O)NC2CCC2)C1` [Compound 211, (R)-3-(3-((5-chloro-1H-indol-2-yl)methyl)-1-methylureido)-N-cyclobutylpiperidine-1-carboxamide], for which the IC50 was 1360 nM.

With `CC(=O)N1CCC[C@@H](N(C)C(=O)NCc2cc3cc(C(F)(F)F)ccc3[nH]2)C1` [Compound 212, (R)-1-(1-acetylpiperidin-3-yl)-1-methyl-3-((5-(trifluoromethyl)-1H-indol-2-yl)methyl)urea], the IC50 amounted to 259 nM.

With `CC(C)NC(=O)N1CCC[C@@H](N(C)C(=O)NCc2cc3cc(Cl)ccc3[nH]2)C1` [Compound 213, (R)-3-(3-((5-chloro-1H-indol-2-yl)methyl)-1-methylureido)-N-isopropylpiperidine-1-carboxamide], the IC50 stood at 804 nM.

In the case of `CC(=O)N1CCC[C@@H](N(C)C(=O)NCc2cc3ccc(C)cc3[nH]2)C1` [Compound 214, (R)-1-(1-acetylpiperidin-3-yl)-1-methyl-3-((6-methyl-1H-indol-2-yl)methyl)urea], the IC50 was determined as 1290 nM.

As to `CN(C(=O)NCc1cc2cc(Cl)ccc2[nH]1)[C@@H]1CCCN(C(=O)CCO)C1` [Compound 215, (R)-3-((5-chloro-1H-indol-2-yl)methyl)-1-(1-(3-hydroxypropanoyl)piperidin-3-yl)-1-methylurea], the 50% inhibitory concentration (IC50) was found to be 637 nM.
